Test: Solubility of cyclodextrins in an aqueous gelatin/glycerin solution
Assay type: physicochemical
Method: The solubility of β-, γ and hydroxypropyl-β-(HPβ) cyclodextrin in the solution containing gelatin was verified. This study was conducted by dissolving quantities of 2.5% or of 5% (W/V) of β-, γ or hydroxypropyl-β-(HPβ) cyclodextrin in an aqueous solution containing 36% (W/W) of gelatin and 15% (W/W) of anhydrous glycerin.

[1] = 5% (W/V) cyclodextrin in aqueous solution containing 36% (W/W) gelatin and 15% (W/W) anhydrous glycerin

Molecule: hydroxypropyl-β-cyclodextrin
- solubility in the solution containing gelatin [1]: soluble

Molecule: OC[C@H]1O[C@@H]2O[C@H]3[C@H](O)[C@@H](O)[C@@H](O[C@H]4[C@H](O)[C@@H](O)[C@@H](O[C@H]5[C@H](O)[C@@H](O)[C@@H](O[C@H]6[C@H](O)[C@@H](O)[C@@H](O[C@H]7[C@H](O)[C@@H](O)[C@@H](O[C@H]8[C@H](O)[C@@H](O)[C@@H](O[C@H]9[C@H](O)[C@@H](O)[C@@H](O[C@H]1[C@H](O)[C@H]2O)O[C@@H]9CO)O[C@@H]8CO)O[C@@H]7CO)O[C@@H]6CO)O[C@@H]5CO)O[C@@H]4CO)O[C@@H]3CO [γ-cyclodextrin]
- solubility in the solution containing gelatin [1]: soluble

Molecule: OC[C@H]1O[C@@H]2O[C@H]3[C@H](O)[C@@H](O)[C@@H](O[C@H]4[C@H](O)[C@@H](O)[C@@H](O[C@H]5[C@H](O)[C@@H](O)[C@@H](O[C@H]6[C@H](O)[C@@H](O)[C@@H](O[C@H]7[C@H](O)[C@@H](O)[C@@H](O[C@H]8[C@H](O)[C@@H](O)[C@@H](O[C@H]1[C@H](O)[C@H]2O)O[C@@H]8CO)O[C@@H]7CO)O[C@@H]6CO)O[C@@H]5CO)O[C@@H]4CO)O[C@@H]3CO [β-cyclodextrin]
- solubility in the solution containing gelatin (2.5% (W/V) cyclodextrin in aqueous solution containing 36% (W/W) gelatin and 15% (W/W) anhydrous glycerin): soluble
- solubility in the solution containing gelatin [1]: opalescent mixture

From patent publication US9168229B2, “Soft gelatin capsules” (ALTERGON S.A., priority 2005, dated 2015)
